Source: ChEMBL document CHEMBL3994622, “Design and synthesis of new RAF kinase-inhibiting antiproliferative quinoline derivatives. Part 2: Diarylurea derivatives” (Eur J Med Chem, 2017)

What was measured:
[1] = target: RAF proto-oncogene serine/threonine-protein kinase (Homo sapiens, UniProt P04049); test: Inhibition of human c-RAF using MEK1 as substrate in presence of [33P]ATP by Hotspot assay
[2] = system: EKVX; test: Growth inhibition of human EKVX cells incubated for 48 hrs by sulforhodamine B assay; format: functional
[3] = system: UACC-62; test: Growth inhibition of human UACC62 cells incubated for 48 hrs by sulforhodamine B assay; format: functional; conditions: UACC-62, 48 h; for CC50: read-out: LC50 (the source's name)
[4] = system: A498; test: Growth inhibition of human A498 cells incubated for 48 hrs by sulforhodamine B assay; format: functional; conditions: A498, 48 h; for CC50: read-out: LC50 (the source's name)
[5] = system: NCI-H460; test: Growth inhibition of human NCI-H460 cells incubated for 48 hrs by sulforhodamine B assay; format: functional; conditions: NCI-H460, 48 h; for CC50: read-out: LC50 (the source's name)
[6] = system: DU-145; test: Growth inhibition of human DU145 cells incubated for 48 hrs by sulforhodamine B assay; format: functional; conditions: DU-145, 48 h; for CC50: read-out: LC50 (the source's name)
[7] = system: Hs-578T; test: Growth inhibition of human Hs 578T cells incubated for 48 hrs by sulforhodamine B assay; format: functional; conditions: for CC50: read-out: LC50 (the source's name)
[8] = system: NCI-H226; test: Growth inhibition of human NCI-H226 cells incubated for 48 hrs by sulforhodamine B assay; format: functional; conditions: NCI-H226, 48 h; for CC50: read-out: LC50 (the source's name)
[9] = system: 786-0; test: Growth inhibition of human 786-0 cells incubated for 48 hrs by sulforhodamine B assay; format: functional; conditions: 786-0, 48 h; for CC50: read-out: LC50 (the source's name)
[10] = system: U-251; test: Growth inhibition of human U251 cells incubated for 48 hrs by sulforhodamine B assay; format: functional; conditions: U-251, 48 h; for CC50: read-out: LC50 (the source's name)
[11] = system: MDA-MB-435; test: Growth inhibition of human MDA-MB-435 cells incubated for 48 hrs by sulforhodamine B assay; format: functional; conditions: MDA-MB-435, 48 h; for CC50: read-out: LC50 (the source's name)
[12] = system: NCI-H23; test: Growth inhibition of human NCI-H23 cells incubated for 48 hrs by sulforhodamine B assay; format: functional; conditions: NCI-H23, 48 h; for CC50: read-out: LC50 (the source's name)
[13] = system: SNB-19; test: Growth inhibition of human SNB19 cells incubated for 48 hrs by sulforhodamine B assay; format: functional; conditions: SNB-19, 48 h; for CC50: read-out: LC50 (the source's name)
[14] = system: NCI-H522; test: Growth inhibition of human NCI-H522 cells incubated for 48 hrs by sulforhodamine B assay; format: functional; conditions: NCI-H522, 48 h; for CC50: read-out: LC50 (the source's name)
[15] = system: NCI-H322M; test: Growth inhibition of human NCI-H322M cells incubated for 48 hrs by sulforhodamine B assay; format: functional; conditions: for CC50: read-out: LC50 (the source's name)
[16] = system: SN12C; test: Growth inhibition of human SN12C cells incubated for 48 hrs by sulforhodamine B assay; format: functional; conditions: for CC50: read-out: LC50 (the source's name)
[17] = system: HT-29; test: Growth inhibition of human HT-29 cells incubated for 48 hrs by sulforhodamine B assay; format: functional; conditions: HT-29, 48 h; for CC50: read-out: LC50 (the source's name)
[18] = system: SR; test: Growth inhibition of human SR cells incubated for 48 hrs by sulforhodamine B assay; format: functional; conditions: for CC50: read-out: LC50 (the source's name)
[19] = system: SK-MEL-5; test: Growth inhibition of human SK-MEL-5 cells incubated for 48 hrs by sulforhodamine B assay; format: functional; conditions: SK-MEL-5, 48 h; for CC50: read-out: LC50 (the source's name)
[20] = system: BT-549; test: Growth inhibition of human BT549 cells incubated for 48 hrs by sulforhodamine B assay; format: functional; conditions: BT-549, 48 h; for CC50: read-out: LC50 (the source's name)
[21] = system: SK-OV-3; test: Growth inhibition of human SKOV3 cells incubated for 48 hrs by sulforhodamine B assay; format: functional; conditions: SK-OV-3, 48 h; for CC50: read-out: LC50 (the source's name)
[22] = system: IGROV-1; test: Growth inhibition of human IGROV1 cells incubated for 48 hrs by sulforhodamine B assay; format: functional; conditions: IGROV-1, 48 h; for CC50: read-out: LC50 (the source's name)
[23] = system: ACHN; test: Growth inhibition of human ACHN cells incubated for 48 hrs by sulforhodamine B assay; format: functional; conditions: for CC50: read-out: LC50 (the source's name)
[24] = system: SK-MEL-28; test: Growth inhibition of human SK-MEL-28 cells incubated for 48 hrs by sulforhodamine B assay; format: functional; conditions: SK-MEL-28, 48 h; for CC50: read-out: LC50 (the source's name)
[25] = system: RPMI-8226; test: Growth inhibition of human RPMI8226 cells incubated for 48 hrs by sulforhodamine B assay; format: functional; conditions: RPMI-8226, 48 h
[26] = system: KM12; test: Growth inhibition of human KM12 cells incubated for 48 hrs by sulforhodamine B assay; format: functional; conditions: KM12, 48 h; for CC50: read-out: LC50 (the source's name)
[27] = system: NCI/ADR-RES; test: Growth inhibition of human NCI/ADR-RES cells incubated for 48 hrs by sulforhodamine B assay; format: functional; conditions: for CC50: read-out: LC50 (the source's name)
[28] = system: UACC-257; test: Growth inhibition of human UACC257 cells incubated for 48 hrs by sulforhodamine B assay; format: functional; conditions: UACC-257, 48 h; for CC50: read-out: LC50 (the source's name)
[29] = system: HOP-92; test: Growth inhibition of human HOP92 cells incubated for 48 hrs by sulforhodamine B assay; format: functional; conditions: HOP-92, 48 h
[30] = system: RXF 393; test: Growth inhibition of human RXF393 cells incubated for 48 hrs by sulforhodamine B assay; format: functional; conditions: RXF 393, 48 h; for CC50: read-out: LC50 (the source's name)
[31] = system: OVCAR-4; test: Growth inhibition of human OVCAR4 cells incubated for 48 hrs by sulforhodamine B assay; format: functional; conditions: OVCAR-4, 48 h; for CC50: read-out: LC50 (the source's name)
[32] = system: SF-295; test: Growth inhibition of human SF295 cells incubated for 48 hrs by sulforhodamine B assay; format: functional; conditions: SF-295, 48 h; for CC50: read-out: LC50 (the source's name)

Sequence of RAF proto-oncogene serine/threonine-protein kinase (P04049 whole entry): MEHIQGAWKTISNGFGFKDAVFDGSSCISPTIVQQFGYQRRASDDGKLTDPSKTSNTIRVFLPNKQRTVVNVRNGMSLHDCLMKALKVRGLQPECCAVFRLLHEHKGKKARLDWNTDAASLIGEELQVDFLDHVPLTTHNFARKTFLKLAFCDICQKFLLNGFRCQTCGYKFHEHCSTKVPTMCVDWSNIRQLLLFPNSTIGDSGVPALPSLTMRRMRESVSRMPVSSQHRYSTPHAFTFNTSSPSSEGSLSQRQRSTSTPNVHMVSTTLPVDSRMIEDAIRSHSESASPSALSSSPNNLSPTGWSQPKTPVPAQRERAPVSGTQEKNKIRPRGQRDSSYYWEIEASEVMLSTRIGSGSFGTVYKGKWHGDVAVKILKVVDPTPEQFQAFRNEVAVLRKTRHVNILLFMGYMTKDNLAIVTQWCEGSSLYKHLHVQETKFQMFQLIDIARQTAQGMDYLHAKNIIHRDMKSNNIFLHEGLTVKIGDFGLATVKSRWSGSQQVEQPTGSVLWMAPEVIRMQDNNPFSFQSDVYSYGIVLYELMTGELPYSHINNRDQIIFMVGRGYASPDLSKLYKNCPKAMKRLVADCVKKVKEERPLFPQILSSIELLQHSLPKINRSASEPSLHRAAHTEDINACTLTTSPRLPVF

COc1cc2cc(Oc3ccc(NC(=O)Nc4ccc(Cl)c(C(F)(F)F)c4)cc3)c(C)nc2cc1OC
IC50 [1]: 0.1 µM
GI50 [2]: 1.01 µM
LC50 (concentration killing 50% of cells) [2]: 17.6 µM
TGI [2]: 3.75 µM
GI50 [3]: 1.24 µM
TGI [3]: 6.01 µM
CC50 [3]: 18.4 µM
GI50 [4]: 0.754 µM
TGI [4]: 3.32 µM
CC50 [4]: 10.7 µM
GI50 [5]: 1.07 µM
TGI [5]: 3.57 µM
CC50 [5]: 21.1 µM
GI50 [6]: 1.24 µM
TGI [6]: 5.11 µM
CC50 [6]: 19.1 µM
GI50 [7]: 0.72 µM
TGI [7]: 2.31 µM
CC50 [7]: 27.4 µM
GI50 [8]: 1.27 µM
TGI [8]: 5.01 µM
CC50 [8]: > 32.5 µM
GI50 [9]: 1.17 µM
TGI [9]: 4.97 µM
CC50 [9]: 18.8 µM
GI50 [10]: 1.03 µM
TGI [10]: 3.78 µM
CC50 [10]: 12.6 µM
GI50 [11]: 1.03 µM
TGI [11]: 4.71 µM
CC50 [11]: > 32.5 µM
GI50 [12]: 0.991 µM
TGI [12]: 3.79 µM
CC50 [12]: 15.8 µM
GI50 [13]: 1.41 µM
TGI [13]: 5.31 µM
CC50 [13]: 15 µM
GI50 [14]: 0.773 µM
TGI [14]: 2.65 µM
CC50 [14]: 12.2 µM
GI50 [15]: 2.05 µM
TGI [15]: 6.28 µM
CC50 [15]: 16.3 µM
GI50 [16]: 1.31 µM
TGI [16]: 6.12 µM
CC50 [16]: 26.8 µM
GI50 [17]: 1.2 µM
TGI [17]: 3.98 µM
CC50 [17]: 14.2 µM
GI50 [18]: 0.831 µM
TGI [18]: 2.65 µM
CC50 [18]: > 32.5 µM
GI50 [19]: 0.793 µM
TGI [19]: 2.17 µM
CC50 [19]: 8.01 µM
GI50 [20]: 0.981 µM
TGI [20]: 4.59 µM
CC50 [20]: 20.5 µM
GI50 [21]: 1.35 µM
TGI [21]: 5.79 µM
CC50 [21]: 31.5 µM
GI50 [22]: 2.34 µM
TGI [22]: 9.83 µM
CC50 [22]: > 32.5 µM
GI50 [23]: 1.07 µM
TGI [23]: 4 µM
CC50 [23]: 13.7 µM
GI50 [24]: 1.41 µM
TGI [24]: 5.45 µM
CC50 [24]: 14.4 µM
GI50 [25]: 0.636 to 0.64 µM
LC50 (lethal concentration, 50% cell kill) [25]: > 32.5 µM
TGI [25]: 1.65 µM
GI50 [26]: 1.07 µM
TGI [26]: 3.85 µM
CC50 [26]: 13.8 µM
GI50 [27]: 1.06 µM
TGI [27]: 4.91 µM
CC50 [27]: > 32.5 µM
GI50 [28]: 0.71 µM
TGI [28]: 2.36 µM
CC50 [28]: 19.6 µM
GI50 [29]: 0.682 µM
LC50 [29]: 10.3 µM
TGI [29]: 2.05 µM
GI50 [30]: 1.33 µM
TGI [30]: 4.21 µM
CC50 [30]: 15 µM
GI50 [31]: 1.37 µM
TGI [31]: 6.1 µM
CC50 [31]: 23.5 µM
GI50 [32]: 0.899 to 0.9 µM
TGI [32]: 2.91 µM
CC50 [32]: 22.2 µM

Cc1nc2cc(O)c(O)cc2cc1Oc1ccc(NC(=O)Nc2ccc(Cl)c(Cl)c2)cc1
GI50 [3]: 5.67 µM
TGI [3]: 11.2 µM
CC50 [3]: 22.1 µM
GI50 [4]: > 32.5 µM
TGI [4]: > 32.5 µM
CC50 [4]: > 32.5 µM
GI50 [5]: 6.95 µM
TGI [5]: 15.8 µM
CC50 [5]: > 32.5 µM
GI50 [6]: 7.26 µM
TGI [6]: 25.2 µM
CC50 [6]: > 32.5 µM
GI50 [7]: 12.8 µM
TGI [7]: > 32.5 µM
CC50 [7]: > 32.5 µM
GI50 [8]: 11.8 µM
TGI [8]: > 32.5 µM
CC50 [8]: > 32.5 µM
GI50 [9]: 7.67 µM
TGI [9]: 18.6 µM
CC50 [9]: > 32.5 µM
GI50 [10]: 6.58 µM
TGI [10]: > 32.5 µM
CC50 [10]: > 32.5 µM
GI50 [11]: 6.99 µM
TGI [11]: > 32.5 µM
CC50 [11]: > 32.5 µM
GI50 [12]: 6.97 µM
TGI [12]: 19.6 µM
CC50 [12]: > 32.5 µM
GI50 [13]: 10.1 µM
TGI [13]: > 32.5 µM
CC50 [13]: > 32.5 µM
GI50 [14]: 4.43 µM
TGI [14]: 12.5 µM
CC50 [14]: > 32.5 µM
GI50 [15]: 14.1 µM
TGI [15]: > 32.5 µM
CC50 [15]: > 32.5 µM
GI50 [16]: 8.97 µM
TGI [16]: 30.3 µM
CC50 [16]: > 32.5 µM
GI50 [17]: 11.9 µM
TGI [17]: > 32.5 µM
CC50 [17]: > 32.5 µM
GI50 [18]: 1.56 µM
TGI [18]: 12.3 µM
CC50 [18]: > 32.5 µM
GI50 [19]: 5.94 µM
TGI [19]: 14.2 µM
CC50 [19]: > 32.5 µM
GI50 [20]: 7.5 µM
TGI [20]: > 32.5 µM
CC50 [20]: > 32.5 µM
GI50 [21]: 11.7 µM
TGI [21]: > 32.5 µM
CC50 [21]: > 32.5 µM
GI50 [22]: 12.3 µM
TGI [22]: > 32.5 µM
CC50 [22]: > 32.5 µM
GI50 [23]: 3.37 µM
TGI [23]: 17.9 µM
CC50 [23]: > 32.5 µM
GI50 [24]: 9 µM
TGI [24]: 30.1 µM
CC50 [24]: > 32.5 µM
GI50 [25]: 7.62 µM
LC50 (lethal concentration, 50% cell kill) [25]: > 32.5 µM
TGI [25]: 20.7 µM
GI50 [26]: 9.64 µM
TGI [26]: 32 µM
CC50 [26]: > 32.5 µM
GI50 [27]: 8.74 µM
TGI [27]: > 32.5 µM
CC50 [27]: > 32.5 µM
GI50 [28]: 7.27 µM
TGI [28]: 21.3 µM
CC50 [28]: > 32.5 µM
GI50 [29]: 2.85 µM
LC50 [29]: > 32.5 µM
TGI [29]: 16.7 µM
GI50 [30]: 9.24 µM
TGI [30]: > 32.5 µM
CC50 [30]: > 32.5 µM
GI50 [31]: 9.73 µM
TGI [31]: > 32.5 µM
CC50 [31]: > 32.5 µM
GI50 [32]: 11.4 µM
TGI [32]: > 32.5 µM
CC50 [32]: > 32.5 µM
